# Oligonucleotides are written 5' to 3', each unit as a sugar letter and its base; * is a phosphorothioate linkage, no mark a phosphodiester; rarer units and linkages stand in square brackets, end groups in braces. Plain capitals give the bases only. {(C18)3CCH2} = lipid of three C18 alkyl chains on a quaternary carbon, linked through CH2-O-phosphodiester; {3LON} = triple hydrocarbon-chain lipid moiety added by triple chain phosphoramidite 4; d = 2'-deoxy (DNA)
# Legend:
# [1] = Size of LON aggregates by DLS, TEM and SEM; type: physicochemical
# Experimental: Transmission Electron Microscopy (TEM). Samples were imaged by negative staining microscopy with a Hitachi H 7650 electron microscope. Samples containing LONs (concentrations and mean sizes are indicated in TEM images) were transferred to a carbon-coated copper grid for ten minutes. The sample was then dried and stained with 2.5% (W/W) of uranyl acetate in water for five minutes.
# Scanning Electron Microscopy (SEM). Samples were examined at an accelerating voltage of 10 kV. Typically […] of sample containing the LON aggregates were dried spread on polished stainless steel platelets and then coated with a 6-10 nm layer of gold-palladium alloy under vacuum with a sputter Coater Balzers SCD050. Observations were made with a Philips XL30S FEG instrument.
# (§1) As true surfactants, LONs can self assemble in aqueous media. […] The latter could be HPLC-purified and characterized by MS. […] Consequently, dynamic light scattering, transmission electron microscopy and SEM experiments were carried out with the solutions of one purified LON only. Aqueous samples containing LONs were studied under different conditions including pure water and aqueous suspensions of varying ionic strength and temperature (25-45° C.). All the LONs investigated, namely ^3LON-T15, yielded small spherical objects ranging from approximately 8 to 20 nm in diameter as characterized by DLS, transmission and scanning electronic microscopies (TEM and SEM). […] The micellar architecture of these assemblies can be explained based upon the molecular dimensions of 15 nucleobase-long LONs. Indeed, such molecules are flexible, with cone shape structure and dimensions compatible with the self-aggregation into spherical micelles.
# [2] = Aggregation behavior of LONs in aqueous media; type: physicochemical
# Experimental: as §1, with “Consequently, dynamic light scattering, transmission electron microscopy and SEM experiments were carried out with the solutions of one purified LON only.” left out
# [3] = Solubility of LONs in water; type: physicochemical; details: adenosine-containing versus thymidine LON
# Experimental: At this point, the crude ^3LON-T15 and ^3LON-A15 behave quite differently. […] The LON eluted after ca. 42 min under these conditions. Fractions containing the LON were pooled and evaporated to dryness. The LON was dissolved in water and dried again two times to remove all residual traces of buffer. Yield of final ^3LON-T15 was excellent (40%).
# as §1
# PC-3 cells = assay: MTT assay, in vitro growth inhibitory effects; type: cell-based, human; details: transfection in the absence of Oligofectamine
# Experimental: The CR prostate cancer cell line PC-3 was purchased from the American Type Culture Collection (Rockville, Md., USA). The cells were maintained in Dulbecco's Modified Eagle's Medium (Invitrogen, Cergy Pontoise, France), supplemented with 10% fetal calf serum (FCS).
# (§2) Prostatic cell line were transfected with LASO#15 at various concentrations (from 30 nM to 100 nM), in OptiMEM® medium (Invitrogen), without serum and in the absence of Oligofectamine™ transfection reagent (Invitrogen).
# (§3) Serum was added 4 hours after transfection. Two or three days after transfection, the level of TCTP protein expression and GAPDH (used as housekeeping gene) were determined by performing western blotting, and the in vitro growth inhibitory effects of LASO#15 on PC-3 cells were assessed using an MTT assay.
# The MTT assay was performed as described previously (Rocchi et al., 2004, Cancer Res. 64:6595-602).
# TCTP protein = TCTP protein expression by western blot after transfection without Oligofectamine; type: cell-based, human; details: PC-3 prostatic cells; absence of Oligofectamine; 30 nM to 100 nM, in particular 100 nM; two or three days after transfection; LASO#Scr negative control
# Experimental: Lipid-conjugated oligonucleotide, LASO#15 was tested on TCTP protein expression using western-blot (LASO#Scr was used as negative control).
# as §2, §3
# Western Blot analysis was performed as described previously (Rocchi et al., 2004, Cancer Res. 64:6595-602) with 1:2000 rabbit TCTP polyclonal antibody (Abcam Inc., Cambridge, UK). Loading levels were normalized using 1:5000 rabbit anti-glyceraldehyde-3-phosphate dehydrogenase polyclonal (Abcam Inc.).
substance,measurement,setting,value
^3LON-T15: Triple chain polyT 15mer; dT15 (SEQ ID NO: 33) coupled at its 5′ end with triple chain phosphoramidite 4,effect of temperature on aggregate size,[1]; 25-45° C. range,poorly affected by temperature
same,sensitivity of aggregate size to ionic strength,[1]; DLS in water,poorly sensitive to ionic strength
same,change of micelle core on hybridization,"[1]; DLS, hybridization of the complementary dA15, not observed with ncDNA",contraction of the core micelle is observed
same,aggregation on storage,[2]; after storage at −20° C.,slow aggregation tendency
"^3LON-A15: Triple chain polyA 15mer; dA15 (SEQ ID NO: 32) coupled at its 5′ end with triple chain phosphoramidite 4 (DNA AAAAAAAAAAAAAAA; DNA, 5' {3LON}, backbone not given here)",solubility in water (relative),[3],less soluble in water than their thymidine counterparts
same,aggregation after cleavage and deprotection,[2]; crude LON,immediate and irreversible aggregation
(C18)3CCH2—O—P(═O)(—O[−1])-O-5′-AACTTGTTTCCTGCAGGTGA-3′-OH (antisense {(C18)3CCH2}-dAdAdCdTdTdGdTdTdTdCdCdTdGdCdAdGdGdTdGdA) [LASO#15],growth of PC-3 cells (MTT assay),PC-3 cells,inhibiting the growth of the PC-3 cells
same,TCTP protein expression (western blot),TCTP protein,specific inhibition of TCTP protein

# Source: patent publication US9707250B2, “Hydrophobically modified antisense oligonucleotides comprising a triple alkyl chain” (INSTITUT NATIONAL DE LA SANTE ET DE LA RECHERCHE MEDICALE …, priority 2013, dated 2017)
